“Also recorded” adds a separate entry of the source.

Series [1] deals with rat basilar arteries (contractile ETB receptors). Kind of series: 48 h organ culture of basilar artery, S6c (ETB agonist)-induced contraction in wire myograph. It is filed as cell-based. Particulars: for inhibition of S6c-induced contraction (initial screening groups): 1 μM inhibitor, S6c contraction relative to 60 mM K+; for inhibition of S6c-induced contraction (initial screening groups) / IC50: 48 h organ culture; for IC50: Rattus norvegicus, inhibition of S6c-induced contraction, read-out: pIC50 (based on the Emax for S6c) (converted). The protocol: Rats were sedated with O2/CO2 (30/70%) and sacrificed by decapitation. Brains were gently removed and chilled in a cold oxygenated buffer solution of the following composition: 119 mM NaCl, 4.6 mM KCl, 1.5 mM CaCl2, 1.2 mM MgCl2, 1.2 mM NaH2PO4, 15 mM NaHCO3 and 5.5 mM Glucose; pH 7.4. The basilar artery (BA) was carefully dissected from the brain in a physiological buffer solution followed by either OC (naïve animals) or directly mounted in a wire myograph (arteries from rats which has undergone surgical procedures). Segments were incubated for 48 hours at 37° C. in humidified 5% CO2/O2 in DMEM supplemented with streptomycin and penicillin with inhibitors or vehicle (DMSO). Culture media was changed after 24 hours.
(§1) For contractility measurements, both incubated BAs (ex vivo) and BAs after surgical procedure (in vivo) were cut into segments and mounted on a pair of metal wires (40 μm) in a myograph bath. The arteries from OC were mounted the same way after 48 hours in media. One wire was attached to a micro-meter screw which allows for fine adjustments of the distance between the wires, controlling the vascular tone.
(§2) The segments were equilibrated in physiological buffer aerated with 95% O2/5% CO2, pH of 7.4, temperature set at 37° C. and the wires were separated for isometric pretension at 2 Nm^−1. The arterial segments were exposed two or three times with 60 mM K^+, by exchanging the buffer with a 60 mM K^+ buffer solution. To maintain equal osmolarity, a proportional amount of Na^+ had been removed from the buffer. An absolute cut-off was set at 2.0 mN K^+max for inclusion of arterial segments from rats that underwent the surgical procedure. Endothelium function was evaluated with the addition of 5-HT (3.10^−7 M) followed by carbachol (10^−5 M). For arteries from the OC the protocol was as followed: first a cumulative concentration-response curve to sarafotoxin 6C (S6c, 10^−14-10^−7 M), followed by a concentration-response curve to endothelin-1 (ET-1, 10^−14-10^−7 M). At peak ET-1 (10^−7 M), the buffer was changed to a Ca^2+-free buffer containing 10^−7 M ET-1 and nimodipine (L-type of voltage dependent Ca^2+ channel entry blocker, 10^−7 M). A concentration-response curve to Ca^2+ (0.0125-3 mM) was then performed. When vasodilation was investigated arteries was precontracted with U46619 (1.10^−7-3.10^−7 M) or K^+ (41 mM) and cumulative concentration-response curves was performed by adding calcitonin gene-related peptide (CGRP, 10^−12-10^−7 M), carbachol (10^−10-10^−5 M) or SNP (10^−11-10^−4 M).
(§3) Contractile responses of each segment were adjusted according to the length of the artery and are expressed as mN/mm (Nm^−1). […] To compare ET-1 sensitivity, arteries were normalized to the percentage of the individual vessel ET-1max. When the artery reached maximum contraction before the last concentration was added, the curves were constrained to the max contraction. The relative log IC50/log EC50 is the concentration corresponding to a response midway between the estimates of the lower and upper plateaus. The Emax is the maximal contraction in the concentration response curve and ET-1max is the maximal contraction to ET-1. All quantitative data is presented as mean±standard error of the mean (SEM), unless otherwise stated.

Series [2] has as its system rat middle cerebral arteries. Kind of series: Contraction of middle cerebral arteries 48 h after tMCAO, wire myograph. Particulars: for agonist-mediated contraction (% of maximum potassium-mediated contraction): occluded MCAs, 48 h after tMCAO, mean±SD.
Description: Mean arterial blood pressure, pCO2, pO2, pH and plasma glucose were measured prior to the occlusion through an arterial tail catheter (Radiometer; LabChart). A rectal thermometer connected to a homoeothermic blanket was used to maintain body temperature at +37° C. during the surgical procedure. An incision was made in the midline of the neck exposing the right common, internal and external carotid arteries. The common and external carotid arteries were permanently ligated by sutures and an incision was made in the common carotid artery. A laser Doppler probe (Perimed, Järfälla, Sweden) was fixed to the thinned skull in the area corresponding to the area supplied by the middle cerebral artery (1 mm posterior to bregma and 6 mm to the right from the midline). A silicone, rubber-coated monofilament (Doccol Corporation, Redlands, Calif., USA) was inserted through the incision until the tip reached the entrance of the right middle cerebral artery (MCA). The occlusion was confirmed by an abrupt reduction of cortical blood flow that was observed using laser Doppler monitoring. After securing the filament, the skin was sutured and anesthesia was discontinued. After two hours of occlusion, the rats were briefly re-anesthetized to remove the filament and allow reperfusion. […] The animals were allowed to recover 48 hours after surgery with free access to food and water before they were anesthetized with CO2 and decapitated. The brains were removed and immediately chilled in ice-cold bicarbonate buffer solution (for composition, see Drugs, Chemicals and Solutions). Right (occluded) and left (non-occluded) middle cerebral arteries were dissected free from adhering tissue and used for myograph studies.
Contractile properties of middle cerebral arteries were examined using a wire Mulvany-Halpern myograph that records isometric tension (Danish Myo Technology A/S, Aarhus, Denmark). Arteries were cut into cylindrical segments (2 mm), and mounted in the myographs by two parallel 40 μm wires inserted through the lumen. The myograph baths contained 5 ml +37° C. bicarbonate buffer solution (for composition, see Drugs, Chemicals and Solutions) continuously aerated with 5% carbon dioxide in oxygen resulting in pH 7.4. […] The other wire was connected to a force displacement transducer attached to an analogue-digital converter (AD Instruments, Chalgrove, UK). The results were recorded on a computer using a Power Lab unit (AD instruments) and the software LabChart (ADInstruments). After the normalization procedure, the arteries were allowed to equilibrate at this tension for 20 min.
The maximum potassium-mediated contraction was used as a reference value (=100%) for contractile capacity. To eliminate endothelial influence, the production of nitric oxide and prostaglandins was blocked with 100 μM L-NG-nitroarginine methyl ester (L-NAME) and 10 μM indomethacin, respectively, which were present in the tissue baths throughout the experiments on the arteries from the in vivo stroke model.
Receptors for 5-hydroxytryptamine receptors (5-HT) were evaluated by adding 5-carboxamidotryptamine (5-CT, a non-selective 5-HT1 agonist) in concentrations ranging from 10^−11 to 10^−5M (Hansen-Schwartz). The angiotensin type 1 (AT1) receptor was evaluated by cumulative applications of Angiotensin II in concentrations ranging from 10^−12 to 10^−6 M. 30 minutes prior to the experiment, the AT2 receptor antagonist PD123319 was added to eliminate any AT2 receptor-mediated effects. […]
The next series concerns rat basilar arteries. Kind of series: 48 h organ culture of basilar artery, endothelium function / vasodilation (carbachol, SNP, CGRP). It is filed as cell-based. Particulars: 1 μM inhibitor; for endothelium function (10-5 M carbachol on arteries precontracted with 5-HT) vs DMSO: 48 h organ culture. The protocol: Rats were sedated with O2/CO2 (30/70%) and sacrificed by decapitation. […] The basilar artery (BA) was carefully dissected from the brain in a physiological buffer solution followed by either OC (naïve animals) or directly mounted in a wire myograph (arteries from rats which has undergone surgical procedures). Segments were incubated for 48 hours at 37° C. in humidified 5% CO2/O2 in DMEM supplemented with streptomycin and penicillin with inhibitors or vehicle (DMSO). Culture media was changed after 24 hours.
as §1
as §2, with “The” for “The segments were equilibrated in physiological buffer aerated with 95% O2/5% CO2, pH of 7.4, temperature set at 37° C. and the wires were separated for isometric pretension at 2 Nm^−1. The”, “A concentration-response curve to Ca^2+ (0.0125-3 mM) was then performed.” left out

Series [3] concerns rat subarachnoid haemorrhage model. Briefly: Rat SAH model, intrathecal treatment, myograph of basilar arteries. It is filed as in vivo. On the procedure:
as §1
as §2, with “The” for “The segments were equilibrated in physiological buffer aerated with 95% O2/5% CO2, pH of 7.4, temperature set at 37° C. and the wires were separated for isometric pretension at 2 Nm^−1. The”, “A concentration-response curve to Ca^2+ (0.0125-3 mM) was then performed.” left out
If there was only one curve above the cut-off, the concentration-response curve to ET-1 was prioritized. Segments with the highest K^+ response were generally allocated to the concentration-response curve to ET-1. […] The Ca^2+ free buffer solution had similar composition as above, but 1.5 mM CaCl2 was exchanged with 0.03 mM EDTA.
as §3
Rats were anesthetized and prepared for cisternal infusion of autologous blood, which simulates a SAH. Sham-operated rats went through the same procedure, omitting the intracisternal blood injection of 300 μL. At the end of the procedure, a PinPort (PNP3F22, Instech, US) was placed at the end of the ICP catheter to provide access for intrathecal (i.t.) injectable treatments by a PinPort injector (PNP-3M, Instech, US). 24 hours post-surgery, the rats received s.c. injections of Carprofen (Norodyl, 5 mg/kg) (Scanvet, Denmark) for analgesia.
The intrathecal (i.t.) treatment volumes were estimated for a cerebrospinal fluid (CSF) volume of approximately 90 μL (21) and the total dose was administered as three treatments (4 hours, 10 hours and 24 hours) through the PinPort in the ICP catheter placed in the cisterna magna during the surgical procedure. The first and third injections were given under fixation of the rat. […] Animals were given 2.5 ml isotonic saline s.c. to avoid dehydration, immediately after surgery and in conjunction with the 10 hours and 24 hours treatments.

Series [4] has as its system rat middle cerebral arteries (ETB receptor). Particulars: former studies, same in vitro setup; cited from earlier work.
Series [5] concerns rat basilar arteries (contractile ETB receptors). Particulars: cited from earlier work.
Another series is described as follows: Solubility (statement). It is filed as physicochemical.

Regarding `Cn1cnc2c(F)c(Nc3ccc(Br)cc3F)c(C(=O)NOCCO)cc21` [Binimetinib], in series [1], the “inhibition of S6c-induced contraction (initial screening groups)” value (from here on “inhibition of S6c-induced contraction”) is reported as “Some effect” and the IC50 is 6.76 µM.
Take sarafotoxin 6c [S6c]: the “agonist-mediated contraction (% of maximum potassium-mediated contraction)” value in series [2] (intact females) was found to be 22±16%; in series [2] (ovariectomized females) it was 8±9%.
Regarding `O=C(NOC[C@H](O)CO)c1ccc(F)c(F)c1Nc1ccc(I)cc1F` [PD0325901], in series [1], the “inhibition of S6c-induced contraction” value is “Highly effective; also recorded: almost completely inhibited” and the IC50 was 0.0195 µM. The “estimated inhibitor effect in the ex vivo OC study” value in series [1] (at predicted CSF concentration of approximately 10^-7 M) was about 75%. Besides, in the series on rat basilar arteries (48 h OC), the “Emax following NO donor sodium nitroprusside (SNP)” value is “significant differences in the Emax” and the “response to CGRP” value is “No differences”. In the series on rat basilar arteries (48 h OC, precontracted with U46619 or K+), the “vasodilation in response to carbachol (10^-10-10^-5 M)” value is “improved vasodilation”. Besides, in the series with rat basilar arteries, the “endothelium function (10-5 M carbachol on arteries precontracted with 5-HT) vs DMSO” value (“endothelium function … vs DMSO” below) is given as “significant better endothelium function; also recorded: significant increase”. Besides, the “nimodipine insensitive ET-1max contraction” value in series [3] (SAH + i.t. treatment, Ca2+ curve, 10^-7 M nimodipine) came out at 1.0±0.3 Nm^−1. Also, the endothelium function result in series [3] (animals treated in vivo i.t. after SAH) is “No significant changes”.
As to `N#CC(=C(/N)Sc1ccccc1N)/C(C#N)=C(\N)Sc1ccccc1N` [U0126], in series [4], the “concentration used for equivalent inhibition of ETB-receptor mediated contraction” value was 10 µM. Further, the “inhibition of S6c-induced contraction” value in series [1] is “Not effective; also recorded: no significant effect”. In addition, in series [5] (10 μM, 48 hours OC, known from earlier work), the “effect on ETB specific S6c-induced contractility” value is “inhibitory effect”. For the same compound, the “established threshold for efficacy” value in series [5] (used till date) was 10 µM. In addition, the “endothelium function … vs DMSO” value with rat basilar arteries is listed as “poor endothelial response”. Further, the solubility entry in the series “Solubility (statement)” is listed as “poor solubility”.
For `CC(=O)[C@H]1CC[C@H]2[C@@H]3CCC4=CC(=O)CC[C@]4(C)[C@H]3CC[C@]12C` [progesterone], the “maximum contractile responses of occluded and non-occluded arteries to S6c, Ang II or 5-CT vs placebo” value in series [2] (ovariectomized rats treated 3 weeks, tMCAO) was “not affected”.
As for `Cn1c(=O)c(F)c(Nc2ccc(I)cc2F)c2c(=O)n(C[C@@H](O)CO)cnc21` [TAK-733], in series [1], the “inhibition of S6c-induced contraction” value is given as “Highly effective” and the IC50 was 0.129 µM. Besides, the “endothelium function … vs DMSO” value in the series on rat basilar arteries is “significant better endothelium function; also recorded: significant increase”.
On to `COc1cc(F)c(F)c(Nc2ccc(I)cc2F)c1NS(=O)(=O)C1(C[C@H](O)CO)CC1` [Refametinib], for which the “inhibition of S6c-induced contraction” value in series [1] was “Borderline effective”.
On to `O=C(c1ccc(F)c(F)c1Nc1ccc(I)cc1F)N1CC(O)([C@@H]2CCCCN2)C1` [Cobimetinib], for which, in series [1], the “inhibition of S6c-induced contraction” value is reported as “Highly effective” and the IC50 is 0.0562 µM.
For `NCCc1c[nH]c2ccc(C(N)=O)cc12` [5-CT, 5-carboxamidotryptamine], the “agonist-mediated contraction (% of maximum potassium-mediated contraction)” value in series [2] (intact females) stood at 27±18%; in series [2] (ovariectomized females), 8±11%.
With `CNS(=O)(=O)Nc1nccc(Cc2c(C)c3ccc(Oc4ncccn4)cc3oc2=O)c1F` [RO5126766], in series [1], the “inhibition of S6c-induced contraction” value is reported as “Some effect” and the IC50 is 2.09 µM.
